Data published in patent publication US9028845B2, “Chimeric immunomodulatory compounds and methods of using the same-IV” (Dynavax Technologies Corporation, priority 2001, dated 2015).

Assays:
mouse splenocytes = assay: Mouse splenocyte cytokine secretion (IL-6, IL-12, IFN by ELISA); assay type: cell-based, BALB/c mice; design: IFN: unit not given beside the values; conditions: 24 h
Protocol: Polynucleotides and chimeric compounds were tested for immunostimulatory activity on mouse splenocytes. Immunostimulation was assessed by measurement of cytokine secretion into the culture media. Cytokine levels in the culture supernatant were determined by enzyme-linked immunosorbent assay (ELISA) tests.
Cells were isolated and prepared using standard techniques. Spleens of 8 to 20 week-old BALB/c mice were harvested and the splenocytes isolated using standard teasing and treatment with ACK lysing buffer from BioWhittaker, Inc. Four spleens were pooled in this experiment. Isolated cells were washed in RPMI 1640 media supplemented with 2% heat-inactivated fetal calf serum (FCS), 50 μM 2-mercaptoethanol, 1% penicillin-streptomycin, and 2 mM L-glutamine and resuspended at approximately […] in 10% FCS/RPMI (RPMI 1640 media with 10% heat-inactivated FCS, 50 μM 2-mercaptoethanol, 1% penicillin-streptomycin, and 2 mM L-glutamine).
Cell cultures were set up in triplicate with approximately 7×10^5 cells/well in a 96-well flat microtiter plate in 100 μl 10% FCS/RPMI with the cells allowed to rest for at lest 1 hour after plating. The indicated test compounds were incubated (at the indicated concentrations) for 24 hours at 37° C. Cell supernatants were harvested and frozen at −80° C. Cytokine production by the cells was determined by ELISAs, as shown in 19.

CD19+ B cells = assay: Human B cell proliferation assay (3H-thymidine incorporation); conditions: B cells, 2 μg/ml, Experiment B
human PBMCs = assay: Human PBMC cytokine response assay (IFN-γ and IFN-α in cell-free medium by ELISA), with or without cPLGA; assay type: cell-based;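 on IFN-α (pg/ml) mean: 20 µg/mL compound for 24 hours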;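 on IFN-γ (pg/ml) mean: 20 µg/mL compound for 24 hours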
[1] = Donor 5, 20 μg/ml (mixtures: 20 μg/ml total), 24 h
[2] = Donor 6, 20 μg/ml (mixtures: 20 μg/ml total), 24 h
[3] = mean of Donors 1-2, 20 μg/ml, 24 h
[4] = mean of Donors 5-6, 20 μg/ml (mixtures: 20 μg/ml total), 24 h
[5] = mean of Donors 7-8, 20 μg/ml, 24 h

Substance: 5′-TCGTCG-3′- C3-5′-ACGTTCG-3′-C3-5′-AGATGAT-3′ [Compound C-11]
- IFN (mouse splenocytes; dose 0.1 μg/ml): 960
- IL-6 (mouse splenocytes; dose 0.1 μg/ml): 458
- IL-12 (mouse splenocytes; dose 0.1 μg/ml): 3359
- IFN (mouse splenocytes; dose 1.0 μg/ml): 3220
- IL-6 (mouse splenocytes; dose 1.0 μg/ml): 11814
- IL-12 (mouse splenocytes; dose 1.0 μg/ml): 4914
- IFN (mouse splenocytes; dose 5.0 μg/ml): 3342
- IL-6 (mouse splenocytes; dose 5.0 μg/ml): 10098
- IL-12 (mouse splenocytes; dose 5.0 μg/ml): 4279
- cpm1 (CD19+ B cells; donor 121): 30367 cpm
- cpm2 (CD19+ B cells; donor 121): 30412 cpm
- cpm3 (CD19+ B cells; donor 121): 18528 cpm
- mean cpm (CD19+ B cells; donor 121 mean): 26436 cpm
- cpm1 (CD19+ B cells; donor 194): 16967 cpm
- cpm2 (CD19+ B cells; donor 194): 20898 cpm
- cpm3 (CD19+ B cells; donor 194): 11253 cpm
- mean cpm (CD19+ B cells; donor 194 mean): 16373 cpm
- mean of both (CD19+ B cells; mean of donors 121 and 194): 21404 cpm
- IFN-α (pg/ml) Donor 1 (human PBMCs; Donor 1, 20 μg/ml, 24 h): 119 pg/mL
- IFN-γ (pg/ml) Donor 1 (human PBMCs; Donor 1, 20 μg/ml, 24 h): 2308 pg/mL
- IFN-α (pg/ml) Donor 2 (human PBMCs; Donor 2, 20 μg/ml, 24 h): 0 pg/mL
- IFN-γ (pg/ml) Donor 2 (human PBMCs; Donor 2, 20 μg/ml, 24 h): 270 pg/mL
- IFN-α (pg/ml) Donor 5 (human PBMCs; [1]): 76 pg/mL
- IFN-γ (pg/ml) Donor 5 (human PBMCs; [1]): 25 pg/mL
- IFN-α (pg/ml) Donor 6 (human PBMCs; [2]): 175 pg/mL
- IFN-γ (pg/ml) Donor 6 (human PBMCs; [2]): 792 pg/mL
- IFN-α (pg/ml) Donor 7 (human PBMCs; Donor 7, 20 μg/ml, 24 h): 6 pg/mL
- IFN-γ (pg/ml) Donor 7 (human PBMCs; Donor 7, 20 μg/ml, 24 h): 5 pg/mL
- IFN-α (pg/ml) Donor 8 (human PBMCs; Donor 8, 20 μg/ml, 24 h): 56 pg/mL
- IFN-γ (pg/ml) Donor 8 (human PBMCs; Donor 8, 20 μg/ml, 24 h): 419 pg/mL
- IFN-α (pg/ml) mean (human PBMCs; [3]): 59 pg/mL
- IFN-γ (pg/ml) mean (human PBMCs; [3]): 1289 pg/mL
- IFN-α (pg/ml) mean (human PBMCs; [4]): 126 pg/mL
- IFN-γ (pg/ml) mean (human PBMCs; [4]): 409 pg/mL
- IFN-α (pg/ml) mean (human PBMCs; [5]): 31 pg/mL
- IFN-γ (pg/ml) mean (human PBMCs; [5]): 212 pg/mL
- immunomodulatory activity (IFN-γ / IFN-α secretion), in words (human PBMCs; used alone (no cPLGA)): did have immunomodulatory activity
